From patent US20260078130A1, “NAMPT MODULATORS, PREPARATIONS, AND USES THEREOF” (SIRONAX LTD., priority 2022, published 2026) come the findings set out here.

Like-named read-outs stand apart in the source and are kept apart here.

In experiment [1] the target is T1, human enzyme NAMPT (full length) (Homo sapiens, UniProt P43490).
T1 construct: human enzyme NAMPT (full length)
Put plainly: NMN fluorescence biochemical assay (stimulation of NMN synthesis by NAMPT). Particulars: for EC50: concentration giving half-maximal activation, read-out: Enzymatic EC50; for Enzymatic Emax: fold change of maximal activation compared to DMSO. In short, it runs like this:
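Full-length human NAMPT (100 nM) was preincubated 15 min at 37 °C with compound in 50 mM Tris-HCl pH 7.5, 10 mM MgCl2, 2 mM DTT, then reacted 1 h at 37 °C with 50 μM NAM, 100 μM PRPP, 4 mM ATP (stated solution concentrations). NMN was derivatised with acetophenone/KOH then formic acid and read at Ex/Em 382/445 nm; EC50 and Emax (fold over DMSO) reported.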

Experiment [2] relates to endogenous NAMPT in U2OS cells. Put plainly: Cellular NAD+ modulation assay (NAD/NADH-Glo, U2OS cells). Particulars: Homo sapiens; for maximal fold induction: read-out: Cellular Emax. The format is cell-based. Here is the method:
Certain compounds described herein were also assayed for their ability to stimulate the endogenous NAMPT in a native cellular environment in a cellular NAD^+ modulation assay. U2OS cells were grown in McCoy's 5A medium with 10% fetal bovine serum, in a humidified incubator with an atmosphere of 95% air and 5% CO2 at 37° C. The assays were initiated by plating 30 μL of U2OS cells in a culture medium with 10% fetal bovine serum, at a density of 3000 cells per well in a Corning® 384-well White/Clear Bottom Polystyrene Microplate. The plates were incubated in 37T incubators for a period of 16 hours. Test compounds with a series of concentrations in DMSO were added to the plates in a volume of 150 nL using Echo Liquid handlers. The plates are then incubated for 24 hours. The medium was removed from the wells, then 10 μL PBS was added to each well. To each well of cells in 10 μL of PBS, 10 μL of base solution with 1% DTAB was added. The plate was briefly mixed on a plate shaker to ensure homogeneity and cell lysis (5 mins). 10p L of 0.4N HCl was added per well. The plate was coved, and all samples were incubated for 15 minutes at 60° C. Then the plate was equilibrated for 10 minutes at room temperature. 10 μL of 0.5M Trizma® base was added to each well of acid-treated cells to neutralize the acid. Finally, 30 μL of NAD/NADH-Glo™ Detection Reagent was added. The plate was gently shaken to mix the samples. The plate was incubated for 40 minutes at room temperature. Luminescence was recorded using a luminometer. The potency measurements for the test compounds were quantified and represented as EC50 (concentration of a compound that gives half-maximal activation) and Emax (fold change of a compound's maximal activation compared to DMSO).

Where [3] appears, read: NMN synthesis by purified human NAMPT (100 nM).
The mark [4] stands for this setting: 24 hours incubation with compound.
Where [5] appears, read: NMN fluorescence assay, purified human NAMPT 100 nM.
[6] abbreviates: 24 hours incubation, cellular NAD+.

T1 sequence (P43490 whole entry): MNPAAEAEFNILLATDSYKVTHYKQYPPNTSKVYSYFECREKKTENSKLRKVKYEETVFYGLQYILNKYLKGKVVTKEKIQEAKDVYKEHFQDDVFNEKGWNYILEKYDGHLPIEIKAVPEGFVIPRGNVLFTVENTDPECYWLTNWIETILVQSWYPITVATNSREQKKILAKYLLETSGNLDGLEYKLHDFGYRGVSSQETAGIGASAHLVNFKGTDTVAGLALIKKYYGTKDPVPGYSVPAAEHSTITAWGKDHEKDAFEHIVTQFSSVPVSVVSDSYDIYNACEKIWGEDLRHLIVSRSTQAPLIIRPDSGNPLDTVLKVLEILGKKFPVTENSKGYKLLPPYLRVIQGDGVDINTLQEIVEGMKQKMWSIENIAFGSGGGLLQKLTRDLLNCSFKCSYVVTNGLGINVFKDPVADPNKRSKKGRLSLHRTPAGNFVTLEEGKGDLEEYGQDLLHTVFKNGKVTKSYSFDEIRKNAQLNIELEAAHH

As usually defined, the EC50 is the concentration at which the effect is half-maximal. In the case of `CC1c2cc(CN3CC4(CNC4)C3)ccc2C(=O)N1Cc1ccc2[nH]c(=O)oc2c1` (stereo not shown) [Compound 115, 6-((5-((2,6-diazaspiro[3.3]heptan-2-yl)methyl)-3-methyl-1-oxoisoindolin-2-yl)methyl) benzo[d]oxazol-2(3H)-one], in experiment [1] (setting [3]), the 50% effective concentration (EC50) was at least 5000 nM. Moreover, the “Enzymatic Emax” value in experiment [1] was “A (A>3)”. Also, in experiment [2] (setting [4]), the EC50 was in the range of 5000 to 50000 nM and the maximal fold induction lay in the range of 1.2 to 1.5.
In the case of `Cn1cccc(CC2c3ccccc3C(=O)N2Cc2ccc3[nH]c(=O)oc3c2)c1=O` (stereo not shown) [Compound 234, 6-((1-((1-methyl-2-oxo-1,2-dihydropyridin-3-yl)methyl)-3-oxoisoindolin-2-yl)methyl) benzo[d]oxazol-2(3H)-one], the EC50 in experiment [1] (setting [3]) was at least 5000 nM. Moreover, in experiment [1], the “Enzymatic Emax” value is listed as “A (A>3)”. In experiment [2] (setting [4]), the concentration giving a half-maximal response (EC50) lay in the range of 500 to 5000 nM and the maximal fold induction was above 1.5.
The matching figures for `CC1c2cc(NC3CCCC3)ccc2C(=O)N1Cc1ccc2[nH]c(=O)oc2c1` (stereo not shown) [Compound 81, 6-((5-(cyclopentylamino)-3-methyl-1-oxoisoindolin-2-yl)methyl)benzo[d]oxazol-2(3H)-one]: at least 5000 nM, “A (A>3)”, 500 to 5000 nM and 1.2 to 1.5.
For the compound `O=C1c2ccccc2C(CCc2ccccc2)N1Cc1ccc2[nH]c(=O)oc2c1` (stereo not shown) [Compound 114, 6-((1-oxo-3-phenethylisoindolin-2-yl)methyl)benzo[d]oxazol-2(3H)-one], in experiment [1] (setting [3]), the EC50 lay within 500 to 5000 nM. In addition, the “Enzymatic Emax” value in experiment [1] was “B (3≥B>2)”. In addition, in experiment [2] (setting [4]), the EC50 fell in the range of 5000 to 50000 nM and the maximal fold induction is above 1.5.
On to `O=C1NCC2(CC(CN3C(=O)c4ccccc4C3Cc3ncccc3Br)C2)O1` (stereo not shown) [Compound 270, 2-((1-((3-bromopyridin-2-yl)methyl)-3-oxoisoindolin-2-yl)methyl)-5-oxa-7-azaspiro[3.4]octan-6-one], for which, in experiment [1] (setting [3]), the EC50 is below 500 nM. In experiment [1], the “Enzymatic Emax” value is given as “A (A>3)”. Besides, in experiment [2] (setting [4]), the EC50 was below 500 nM and the maximal fold induction lay in the range of 1.2 to 1.5.
Consider `N#Cc1ncccc1CC1c2ccccc2C(=O)N1Cc1ccc2[nH]c(=O)oc2c1` (stereo not shown) [Compound 201, 3-((3-oxo-2-((2-oxo-2,3-dihydrobenzo[d]oxazol-6-yl)methyl)isoindolin-1-yl)methyl) picolinonitrile], for which the EC50 in experiment [1] (setting [3]) is 500 to 5000 nM. Besides, the “Enzymatic Emax” value in experiment [1] is “A (A>3)”. Moreover, in experiment [2] (setting [4]), the EC50 was below 500 nM and the maximal fold induction was above 1.5.
As to `COc1ccc(CN2C(=O)c3ccccc3C2Cc2c(Cl)cnn2C)cc1` (stereo not shown) [Compound 518, 3-((4-chloro-1-methyl-1H-pyrazol-5-yl)methyl)-2-(4-methoxybenzyl)isoindolin-1-one], in experiment [1] (setting [5]), the EC50 lay in the range of 500 to 5000 nM. Besides, the “Enzymatic Emax” value in experiment [1] is listed as “B (3≥B>2)”. In experiment [2] (setting [6]), the EC50 is below 500 nM and the maximal fold induction lay in the range of 1.2 to 1.5.
As for `Cc1cccc2c1C(=O)N(Cc1ccc(O)cc1)C2=O` [Compound 295, 2-(4-hydroxybenzyl)-4-methylisoindoline-1,3-dione], the EC50 in experiment [1] (setting [3]) and in experiment [2] (setting [4]) was 500 to 5000 nM each time. Also, in experiment [1], the “Enzymatic Emax” value is “C (2≥C)”. Besides, the maximal fold induction in experiment [2] (setting [4]) is 1.2 to 1.5.
For `CC1c2ccccc2C(=O)N1Cc1ccc2[nH]nnc2c1` (stereo not shown) [Compound 44, 2-((1H-benzo[d][1,2,3]triazol-5-yl)methyl)-3-methylisoindolin-1-one], the EC50 in experiment [1] (setting [3]) is at least 5000 nM; in experiment [2] (setting [4]) it was 5000 to 50000 nM. Also, the “Enzymatic Emax” value in experiment [1] was “B (3≥B>2)”. The maximal fold induction in experiment [2] (setting [4]) fell in the range of 1.2 to 1.5.
Regarding `Cc1nn(C)c(CC2c3ccccc3C(=O)N2Cc2ccc3[nH]nnc3c2)c1Cl` (stereo not shown) [Compound 337, 2-((1H-benzo[d][1,2,3]triazol-5-yl)methyl)-3-((4-chloro-1,3-dimethyl-1H-pyrazol-5-yl)methyl)isoindolin-1-one], the EC50 in experiment [1] (setting [5]) was below 500 nM. In addition, the “Enzymatic Emax” value in experiment [1] is “A (A>3)”. In addition, in experiment [2] (setting [6]), the half-maximal effective concentration (EC50) is below 500 nM and the maximal fold induction was above 1.5.
As for `COc1cnc(CN2C(=O)c3ccccc3C2Cc2c(Cl)cnn2C)cc1F` (stereo not shown) [Compound 555, 3-((4-chloro-1-methyl-1H-pyrazol-5-yl)methyl)-2-((4-fluoro-5-methoxypyridin-2-yl)methyl)isoindolin-1-one], the EC50 in experiment [1] (setting [5]) is at least 5000 nM. Further, in experiment [1], the “Enzymatic Emax” value is recorded as “B (3≥B>2)”. Further, in experiment [2] (setting [6]), the EC50 is below 500 nM and the maximal fold induction was above 1.5.
For the compound `Cc1ccc(=O)n(C)c1CC1c2ccccc2C(=O)N1CC1CC2(CNC(=O)O2)C1` (stereo not shown) [Compound 493, 2-((1-((1,3-dimethyl-6-oxo-1,6-dihydropyridin-2-yl)methyl)-3-oxoisoindolin-2-yl)methyl)-5-oxa-7-azaspiro[3.4]octan-6-one], in experiment [1] (setting [5]), the EC50 was 500 to 5000 nM. Also, the “Enzymatic Emax” value in experiment [1] is on record as “B (3≥B>2)”. For the same compound, in experiment [2] (setting [6]), the EC50 lay within 500 to 5000 nM and the maximal fold induction was above 1.5.
In the case of `N#Cc1cccc(Br)c1CC1c2ccccc2C(=O)N1Cc1ccc2[nH]c(=O)oc2c1` (stereo not shown) [Compound 200, 3-bromo-2-((3-oxo-2-((2-oxo-2,3-dihydrobenzo[d]oxazol-6-yl)methyl)isoindolin-1-yl)methyl)benzonitrile], the 50% effective concentration (EC50) in experiment [1] (setting [3]) was below 500 nM. In addition, in experiment [1], the “Enzymatic Emax” value is “B (3≥B>2)”. Besides, in experiment [2] (setting [4]), the EC50 is below 500 nM and the maximal fold induction was above 1.5.
In the case of `Cc1cccc2c1C(Cc1c(Cl)ccnc1C#N)N(Cc1ccc3[nH]c(=O)oc3c1)C2=O` (stereo not shown) [Compound 272, 4-chloro-3-((7-methyl-3-oxo-2-((2-oxo-2,3-dihydrobenzo[d]oxazol-6-yl)methyl)isoindolin-1-yl)methyl)picolinonitrile], in experiment [1] (setting [3]), the EC50 is 500 to 5000 nM. The “Enzymatic Emax” value in experiment [1] is reported as “A (A>3)”. Also, in experiment [2] (setting [4]), the EC50 was below 500 nM and the maximal fold induction is above 1.5.
On to `Cn1nc(Cl)c(CC2c3ccccc3C(=O)N2Cc2ccc3[nH]nnc3c2)n1` (stereo not shown) [Compound 335, 2-((1H-benzo[d][1,2,3]triazol-5-yl)methyl)-3-((5-chloro-2-methyl-2H-1,2,3-triazol-4-yl)methyl)isoindolin-1-one], for which the EC50 in experiment [1] (setting [5]) was 500 to 5000 nM. Moreover, the “Enzymatic Emax” value in experiment [1] was “A (A>3)”. For the same compound, in experiment [2] (setting [6]), the EC50 is below 500 nM and the maximal fold induction is above 1.5.
Take `Cc1ccnc(C#N)c1CC1c2cccc(F)c2C(=O)N1CC1CC2(CNC(=O)O2)C1` (stereo not shown) [Compound 428, 3-((4-fluoro-3-oxo-2-((6-oxo-5-oxa-7-azaspiro[3.4]octan-2-yl)methyl)isoindolin-1-yl)methyl)-4-methylpicolinonitrile]: the EC50 was 500 to 5000 nM in experiment [1] (setting [5]) and below 500 nM in experiment [2] (setting [6]). The “Enzymatic Emax” value in experiment [1] is “B (3≥B>2)”. Further, in experiment [2] (setting [6]), the maximal fold induction is above 1.5.
In the same order, the values of `Cn1ncc(Cl)c1CC1c2cc(C3CCOCC3)ccc2C(=O)N1Cc1ccc2[nH]nnc2c1` (stereo not shown) [Compound 398, 2-((1H-benzo[d][1,2,3]triazol-5-yl)methyl)-3-((4-chloro-1-methyl-1H-pyrazol-5-yl)methyl)-5-(tetrahydro-2H-pyran-4-yl)isoindolin-1-one] are below 500 nM, 500 to 5000 nM, “A (A>3)” and above 1.5.
With `Cn1c(CC2c3ccccc3C(=O)N2Cc2ccc3[nH]nnc3c2)c(Cl)ccc1=O` (stereo not shown) [Compound 381, 2-((1H-benzo[d][1,2,3]triazol-5-yl)methyl)-3-((3-chloro-1-methyl-6-oxo-1,6-dihydropyridin-2-yl)methyl)isoindolin-1-one], the concentration giving a half-maximal response (EC50) in experiment [1] (setting [5]) is below 500 nM. In addition, the “Enzymatic Emax” value in experiment [1] is given as “B (3≥B>2)”. Also, in experiment [2] (setting [6]), the EC50 was below 500 nM and the maximal fold induction is above 1.5.
Consider `Cn1ncc(Cl)c1CC1c2cc(C3CC3)ccc2C(=O)N1CC1CC2(CNC(=O)O2)C1` (stereo not shown) [Compound 311, 2-((3-((4-chloro-1-methyl-1H-pyrazol-5-yl)methyl)-5-cyclopropyl-1-oxoisoindolin-2-yl)methyl)-5-oxa-7-azaspiro[3.4]octan-6-one], for which, in experiment [1] (setting [3]), the EC50 lay within 500 to 5000 nM. Moreover, the “Enzymatic Emax” value in experiment [1] is given as “B (3≥B>2)”. Moreover, in experiment [2] (setting [4]), the EC50 was below 500 nM and the maximal fold induction is above 1.5.
